# According to patent publication US6255098A, “DS11 (KCTC 0231BP), novel Bacillus sp. strain and novel phytase produced by it” (priority 1996, dated 2001):
# Target: T1, novel phytase produced by Bacillus sp. DS11 (KCTC 0231BP), N-terminal amino acid sequence SEQ ID NO: 1 (Bacillus sp., UniProt O66037)
# T1 construct: made in house; host or cells: Bacillus sp; DS11 (KCTC 0231BP), native producer strain; enzyme purified from culture supernatant
# Test: biochemical
# Format: biochemical
# Conditions: for enzyme activity with additive (Non-addition = 100): 30 min
# Procedure: The potency of produced enzyme was measured as follows: By using a substrate, comprising 2 mM phytic acid sodium salts and 2 mM CaCl2 in 0.1 M Tris buffer solution (pH 7.0), the enzyme was reacted at 37° C. for 30 minutes to measure the amount of phosphoric acid generated. One unit of the enzymatic potency is equivalent to the enzymatic amount degrading 1 μ mol of inorganic phosphate per 1 minute. As a result of said measurement, the novel enzyme has the enzymatic potency of 0.3 unit per protein mg. The maximum amount of enzyme in fermentation yielding 0.6 unit/mg was obtained when 30 l of strains, a working volume, was charged to a 50 l fermenter and cultivated at 37° C. for 48 hours under the following conditions: air influx--0.8 vvm; stirring rate--150 rpm.
# 2 l of novel strain solution, cultivated according to the procedure as described in said Example, was centrifuged for 15 minutes. Then, the supernatant solution was saturated with 50% acetone to precipitate proteins and the crude enzyme solution passed through dialysis membrane was purified on a column containing phenyl sepharose CL-4B, Resource S and superose 12 HR 10/30 (all of which are manufactured by Pharmacia, Sweden) so as to isolate the phytase enzyme only. The analytical results by said column are represented in the attached drawing FIG. 2.
# [1] = 0.5 h, pH 7, read-out: enzyme activity with additive (Non-addition = 100)
# T1 sequence (O66037 31-383): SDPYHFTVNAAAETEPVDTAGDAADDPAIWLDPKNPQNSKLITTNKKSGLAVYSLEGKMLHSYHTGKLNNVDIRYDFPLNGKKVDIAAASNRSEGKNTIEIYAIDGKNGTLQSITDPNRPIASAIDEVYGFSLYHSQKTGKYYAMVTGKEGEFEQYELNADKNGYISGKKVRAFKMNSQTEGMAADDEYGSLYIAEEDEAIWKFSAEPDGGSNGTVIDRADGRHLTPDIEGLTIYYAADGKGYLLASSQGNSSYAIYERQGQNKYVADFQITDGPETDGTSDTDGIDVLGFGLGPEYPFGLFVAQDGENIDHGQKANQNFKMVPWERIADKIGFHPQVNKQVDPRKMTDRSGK
Structure (SMILES),inhibition of enzyme activity (in words),remaining activity at 1000 µM [1] [%],remaining activity at 5000 µM [1] [%],enzyme activity with additive (Non-addition = 100) (additive concentration 1 mM),enzyme activity with additive (Non-addition = 100) (additive concentration 5 mM)
O=C(O)CN(CCN(CC(=O)O)CC(=O)O)CC(=O)O [EDTA],inhibited the entire enzyme activity,7.5,7.6,–,–
O=S(=O)(F)Cc1ccccc1 [PMSF],–,–,–,86,88
